According to patent publication US9572760B2, “Uses of compounds and mixtures from Antrodia cinnamomea mycelia” (Simpson Biotech Co., Ltd., priority 2013, dated 2017):

Experiments:
[1] = tested on: TGFb1-treated immortalized HSC; assay: Profibrogenic gene expression in immortalized HSC with recombinant TGF-β treatment (qRT-PCR); assay type: cell-based, human; conditions: for Collagen-1 expression / TGF-β expression / TIMP-1 expression / αSMA expression: compounds 72 hours, then TGF-β (3 ng/ml) 48 hours
From the text: The AML12 (mouse hepatocyte) cells were obtained from the BCRC (Bioresource Collection and Research Center) and cultured in Dulbecco's modified Eagle media (DMEM, Gibco by Invitrogen) with 1% antibiotic antimycotic (Gibco by Invitrogen) and 15% fetal bovine serum (Gibco by Invitrogen). The human Hepatic Stellate Cell, HSC cell line was obtained from the ScienCell Research Laboratory (USA) and cultured in complete medium, Stellate Cell Medium (ScienCell Research Laboratory) with 2% fetal bovine serum (ScienCell Research Laboratory), 1% stellate cell growth supplement (ScienCell Research Laboratory) and 1% penicillin/streptomycin solution (ScienCell Research Laboratory). […] For primary hepatic stellate cell isolation, C57BL/6 mice were anesthetized by intraperitoneal injection of ketamine and xylazine. […] Mouse livers were perfused in situ with 0.5 mM EGTA containing calcium-free salt solution (8 ml/min, 37° C. for 5 minutes), followed by perfusion with 2-step 0.05% collagenase D and pronase containing buffer (Roche Molecular Biochemicals, Indianapolis, Ind.) for 5 and 10 minutes, respectively. The harvested liver was minced gently on a Petri dish and additional incubation with protease containing buffer at 37° C. for 25 minutes. Then, the liver was filtered with 70 μm cell strainer. Cells were centrifuged and collected followed by 8.2% Nycodenz (Accurate Chemical and Scientific Corp.). The cell lines were cultured at 37° C. in a humidified atmosphere containing 5% CO2.
(§1) Exponentially growing cells were harvested and seeded in a 6-well microtiter plate. Each well of cells were collected to eppendrof in 1 mL of TRIzol buffer (Invitrogen, Carlsbad, Calif., USA), and then mixed with 0.5 mL chloroform/isoamyl alcohol (24:1), eppendrofs were centrifuged at 12,000×g for 10 min at 4° C. The supernatant was transferred to a fresh tube, and isopropanol was added, mix well and stored at −80° C. overnight. The reaction mixture was centrifuged at 12,000×g for 30 min at 4° C. to produce a rude RNA pallet, the pellet was washed with 70% ethanol and air-dried. The concentrations of total RNA were measured by absorbance at 260 nm using a NanoDrop ND-1000 (NanoDrop, USA).
(§2) Reverse transcription reaction was performed using a commercially available set of High Capacity RNA-to-cDNA Kit (Applied Biosystems, USA). cDNA was prepared from 2 μg of total RNA per 20 μl reaction, according to the manufacturer's instructions—37° C. for 60 minutes, 95° C. for 5 minutes, and hold at 4° C. The resulting cDNA was to a final concentration of 100 ng/μl and constituted a matrix in further experiments.
(§3) Amplification and detection the gene expression by real-time PCR were performed using StepOne plus Real-time PCR System (Applied Biosystems, USA). Samples were assayed in a 10 μl reaction mixture containing 2 μl of template DNA, 5 μl of 2× TaqMan PCR Master Mix (Applied Biosystems, Life Technologies, Foster City, Calif., USA), 0.5 μl of 20× assay mix containing probe, forward and reverse primer (Applied Biosystems, Life Technologies, Foster City, Calif., USA), whereby qPCR targets with the following information were used: (a) α-SMA, Assay ID Rn01759928_g1, (b) TIMP-1, Assay ID Rn00587558_m1, (c) TGF-β1, Assay ID Rn00572010_m1, (d) Collagen I, Assay ID Rn 01463838_m1, (e) GAPDH, Assay ID Rn1462662_g1. To control variation in mRNA concentration, all results were normalized to the housekeeping gene, GAPDH. Relative quantitation was performed using the comparative ΔΔCt method according to the manufacturer's instructions. The cycling conditions used were as follows: 50° C. for 2 min, 95° C. for 10 min followed by 40 cycles of 95° C. for 15 s and 60° C. for 1 min each. […]

HSC = HSC apoptosis by cell death detection ELISA; assay type: cell-based; conditions: 24-80 μM; 24 h, 48 h and 72 h
Procedure: Apoptosis was detected with a sandwich immunoassay system using a cell death detection ELISA kit (Roche Diagnostic Inc.). Roche's Cell Death Detection ELISA kit qualitatively and quantitatively detects the amount of cleaved DNA/histone complexes (nucleosomes) in a given sample using a sandwich-enzyme-immunoassay-based method. The cells (1×10^4 cells/well) were seeded in 100 μl medium in a 96-well plate (Nunc, Denmark) and cultured for 24 h to allow the cells to attach and then treated with three different concentrations (8 μM, 24 μM and 80 μM) of either Compound A, B, C and D for 24 h, 48 h and 72 h and the plates were incubated in 37° C. After incubation, the 96 well plates were centrifuged for 10 min at 200×g and removed supernatant and discard, then added 200 μl of lysis buffer per well using multipipetman and incubated 30 min at room temperature, microplates were centrifuged the lysate at 200×g for 10 min. After the centrifuge, 20 μl of the supernatant was transferred into the streptavidin-coated microplate, then added 80 μl of immunoreagent to each well. The microplate was covered with an adhesive foil and incubated on a shaker under gentle shaking for 2 hour at room temperature. After the incubation period, microplates were washed three times with 250-300 μl incubation buffer and 100 μl ABTS solution was added and incubated for 30 min or until color is sufficient for photometric. ABTS Stop solution was added and absorbance of the samples was measured using ELISA reader at 405 nm, reference wavelength at 490 nm.

Mouse primary HSC = assay: Profibrogenic gene expression in primary hepatic stellate cells (qRT-PCR); assay type: cell-based; conditions: for Collagen-1 expression / TGF-β expression / TIMP-1 expression / αSMA expression: two concentrations, 72 hrs
From the text: The AML12 (mouse hepatocyte) cells were obtained from the BCRC (Bioresource Collection and Research Center) and cultured in Dulbecco's modified Eagle media (DMEM, Gibco by Invitrogen) with 1% antibiotic antimycotic (Gibco by Invitrogen) and 15% fetal bovine serum (Gibco by Invitrogen). The human Hepatic Stellate Cell, HSC cell line was obtained from the ScienCell Research Laboratory (USA) and cultured in complete medium, Stellate Cell Medium (ScienCell Research Laboratory) with 2% fetal bovine serum (ScienCell Research Laboratory), 1% stellate cell growth supplement (ScienCell Research Laboratory) and 1% penicillin/streptomycin solution (ScienCell Research Laboratory). It is well known that TGF-β1 can activation of HSC, which was used as a positive control, the HSC cells were seeded in plate for 24 h and then the cells were replaced with medium containing 10 ng TGF-β1 (PeproTech, USA). For primary hepatic stellate cell isolation, C57BL/6 mice were anesthetized by intraperitoneal injection of ketamine and xylazine. […] Mouse livers were perfused in situ with 0.5 mM EGTA containing calcium-free salt solution (8 ml/min, 37° C. for 5 minutes), followed by perfusion with 2-step 0.05% collagenase D and pronase containing buffer (Roche Molecular Biochemicals, Indianapolis, Ind.) for 5 and 10 minutes, respectively. The harvested liver was minced gently on a Petri dish and additional incubation with protease containing buffer at 37° C. for 25 minutes. Then, the liver was filtered with 70 μm cell strainer. Cells were centrifuged and collected followed by 8.2% Nycodenz (Accurate Chemical and Scientific Corp.). The cell lines were cultured at 37° C. in a humidified atmosphere containing 5% CO2.
as §1, §2, §3

Compound | anti-fibrosis effect on immortalized HSC in response to TGF-β (summary) [1] | Collagen-1 expression [1] | TGF-β expression [1] | TIMP-1 expression [1] | αSMA expression [1] | apoptosis of HSC (cell death detection assay) (HSC) | anti-fibrosis effect on primary HSC (summary) (Mouse primary HSC) | Collagen-1 expression (Mouse primary HSC) | TGF-β expression (Mouse primary HSC) | TIMP-1 expression (Mouse primary HSC) | αSMA expression (Mouse primary HSC)
CC(C)=CCOc1ccc(C2=C(CC(C)C)C(=O)N(O)C2=O)cc1 [Compound C, 3-isobutyl-4-[4-(3-methyl-2-butenyloxy)phenyl]-1H-pyrrol-1-ol-2,5-dione] | anti-fibrosis effect | dose-dependent effect | dose-dependent effect | dose-dependent effect | dose-dependent effect | apoptosis of HSC | anti-fibrosis effect | dose-dependent effect | dose-dependent effect | dose-dependent effect | dose-dependent effect
CC(C)=CCOc1ccc(C2=C(CC(C)C)C(=O)NC2=O)cc1 [Compound B, 3-isobutyl-4-[4-(3-methyl-2-butenyloxy)phenyl]-1H-pyrrol-2,5-dione] | anti-fibrosis effect | dose-dependent effect | dose-dependent effect | dose-dependent effect | dose-dependent effect | apoptosis of HSC | anti-fibrosis effect | dose-dependent effect | dose-dependent effect | dose-dependent effect | dose-dependent effect
